Test results reported in ChEMBL document CHEMBL3627608, “Crystal structures of human RIP2 kinase catalytic domain complexed with ATP-competitive inhibitors: Foundations for understanding inhibitor selectivity” (Bioorg Med Chem, 2015).

Legend:
[1] = biological target: Fibroblast growth factor receptor 2 (Homo sapiens) (UniProt P21802); assay: Inhibition of FGFR2 (unknown origin) at 10 uM after 120 mins P33 radiolabeled kinase activity assay
[2] = biological target: T1, Serine/threonine-protein kinase Nek5 (Homo sapiens) (UniProt Q6P3R8); assay: Inhibition of NEK5 (unknown origin) at 10 uM after 120 mins P33 radiolabeled kinase activity assay
T1 sequence (whole entry): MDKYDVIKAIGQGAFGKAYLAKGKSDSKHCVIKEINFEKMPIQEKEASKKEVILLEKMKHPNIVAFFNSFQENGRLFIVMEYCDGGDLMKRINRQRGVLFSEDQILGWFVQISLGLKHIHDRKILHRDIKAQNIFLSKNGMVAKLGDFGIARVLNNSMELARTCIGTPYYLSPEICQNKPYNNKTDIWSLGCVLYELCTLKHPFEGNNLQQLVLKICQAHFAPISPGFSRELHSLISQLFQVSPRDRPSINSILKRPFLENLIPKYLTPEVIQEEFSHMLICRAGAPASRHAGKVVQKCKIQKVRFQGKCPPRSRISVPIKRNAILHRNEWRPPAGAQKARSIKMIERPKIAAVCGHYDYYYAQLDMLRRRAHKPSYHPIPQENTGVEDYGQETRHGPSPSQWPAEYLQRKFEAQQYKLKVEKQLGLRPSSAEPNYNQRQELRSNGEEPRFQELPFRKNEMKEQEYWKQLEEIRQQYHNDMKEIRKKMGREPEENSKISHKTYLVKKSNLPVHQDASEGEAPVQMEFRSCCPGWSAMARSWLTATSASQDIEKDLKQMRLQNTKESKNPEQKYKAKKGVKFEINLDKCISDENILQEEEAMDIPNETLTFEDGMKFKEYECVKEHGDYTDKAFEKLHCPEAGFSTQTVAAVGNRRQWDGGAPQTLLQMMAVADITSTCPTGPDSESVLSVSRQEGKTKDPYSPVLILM

[3] = biological target: Serine/threonine-protein kinase N1 (Homo sapiens) (UniProt Q16512); assay: Inhibition of PKN1 (unknown origin) at 10 uM after 120 mins P33 radiolabeled kinase activity assay
Sequence of Serine/threonine-protein kinase N1 (Homo sapiens) (Q16512 2-942 limits assumed): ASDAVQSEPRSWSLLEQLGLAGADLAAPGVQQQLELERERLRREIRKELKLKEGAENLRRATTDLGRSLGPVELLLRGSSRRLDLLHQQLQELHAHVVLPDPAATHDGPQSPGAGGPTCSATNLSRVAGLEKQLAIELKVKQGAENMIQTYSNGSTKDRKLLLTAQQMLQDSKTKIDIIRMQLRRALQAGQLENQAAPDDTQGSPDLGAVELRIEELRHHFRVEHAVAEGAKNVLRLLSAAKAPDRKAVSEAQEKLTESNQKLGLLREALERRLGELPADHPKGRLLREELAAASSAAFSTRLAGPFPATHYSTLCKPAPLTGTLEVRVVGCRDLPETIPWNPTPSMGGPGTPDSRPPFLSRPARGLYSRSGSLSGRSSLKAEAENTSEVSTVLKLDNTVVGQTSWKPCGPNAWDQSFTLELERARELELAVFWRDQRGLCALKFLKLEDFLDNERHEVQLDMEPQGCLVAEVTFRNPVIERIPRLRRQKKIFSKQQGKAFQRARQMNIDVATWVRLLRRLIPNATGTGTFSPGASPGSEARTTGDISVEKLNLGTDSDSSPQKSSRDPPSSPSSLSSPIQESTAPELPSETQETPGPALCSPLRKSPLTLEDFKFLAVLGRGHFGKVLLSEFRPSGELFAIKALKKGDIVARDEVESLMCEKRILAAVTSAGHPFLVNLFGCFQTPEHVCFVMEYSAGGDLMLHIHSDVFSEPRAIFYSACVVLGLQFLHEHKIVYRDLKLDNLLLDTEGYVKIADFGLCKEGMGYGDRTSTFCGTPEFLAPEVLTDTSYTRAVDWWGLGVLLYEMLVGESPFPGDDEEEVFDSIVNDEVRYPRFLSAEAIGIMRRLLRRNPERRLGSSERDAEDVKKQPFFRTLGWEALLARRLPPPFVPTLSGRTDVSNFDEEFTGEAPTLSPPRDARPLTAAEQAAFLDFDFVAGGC

[4] = biological target: Serine/threonine-protein kinase N3 (Homo sapiens) (UniProt Q6P5Z2); assay: Inhibition of PKN3 (unknown origin) at 10 uM after 120 mins P33 radiolabeled kinase activity assay
Sequence of Serine/threonine-protein kinase N3 (Homo sapiens) (Q6P5Z2 whole entry, looked up): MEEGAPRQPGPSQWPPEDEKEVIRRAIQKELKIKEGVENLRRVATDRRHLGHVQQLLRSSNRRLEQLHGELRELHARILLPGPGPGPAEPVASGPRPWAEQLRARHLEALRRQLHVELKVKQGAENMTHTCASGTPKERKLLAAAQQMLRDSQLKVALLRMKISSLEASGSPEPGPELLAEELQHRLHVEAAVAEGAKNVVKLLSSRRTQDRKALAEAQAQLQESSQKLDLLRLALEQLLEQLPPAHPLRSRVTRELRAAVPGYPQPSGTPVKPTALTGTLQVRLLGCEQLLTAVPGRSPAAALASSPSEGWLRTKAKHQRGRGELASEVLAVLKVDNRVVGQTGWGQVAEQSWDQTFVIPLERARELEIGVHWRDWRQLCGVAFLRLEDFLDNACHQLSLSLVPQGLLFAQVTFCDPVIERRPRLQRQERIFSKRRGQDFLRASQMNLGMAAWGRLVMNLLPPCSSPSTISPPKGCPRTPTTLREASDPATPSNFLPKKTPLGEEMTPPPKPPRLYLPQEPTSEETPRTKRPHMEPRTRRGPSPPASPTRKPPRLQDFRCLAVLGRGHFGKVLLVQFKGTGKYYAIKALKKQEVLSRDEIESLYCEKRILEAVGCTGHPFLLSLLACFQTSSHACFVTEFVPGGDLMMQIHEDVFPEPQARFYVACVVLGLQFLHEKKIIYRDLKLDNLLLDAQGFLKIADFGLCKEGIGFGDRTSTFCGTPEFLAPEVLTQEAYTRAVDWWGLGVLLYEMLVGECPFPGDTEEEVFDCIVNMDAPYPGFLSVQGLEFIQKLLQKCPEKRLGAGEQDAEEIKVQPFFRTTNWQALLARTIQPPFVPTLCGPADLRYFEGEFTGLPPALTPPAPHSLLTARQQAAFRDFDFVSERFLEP

[5] = biological target: T2, cAMP-dependent protein kinase catalytic subunit PRKX (Homo sapiens) (UniProt P51817); assay: Inhibition of PRKX (unknown origin) at 10 uM after 120 mins P33 radiolabeled kinase activity assay
T2 sequence (whole entry): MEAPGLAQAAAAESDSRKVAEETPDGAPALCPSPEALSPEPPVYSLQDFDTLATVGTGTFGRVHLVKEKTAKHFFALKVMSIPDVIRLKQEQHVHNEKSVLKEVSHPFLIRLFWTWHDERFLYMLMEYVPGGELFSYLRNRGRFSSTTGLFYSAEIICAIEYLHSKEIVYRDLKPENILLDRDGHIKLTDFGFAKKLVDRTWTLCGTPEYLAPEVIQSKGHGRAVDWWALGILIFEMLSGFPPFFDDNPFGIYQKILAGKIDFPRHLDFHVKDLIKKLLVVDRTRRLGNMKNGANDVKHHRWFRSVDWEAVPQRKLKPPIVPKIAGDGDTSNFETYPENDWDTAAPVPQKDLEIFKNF

[6] = biological target: Serine/threonine-protein kinase MARK1 (Homo sapiens) (UniProt Q9P0L2); assay: Inhibition of MARK1 (unknown origin) at 10 uM after 120 mins P33 radiolabeled kinase activity assay
Sequence of Serine/threonine-protein kinase MARK1 (Homo sapiens) (Q9P0L2 whole entry, looked up): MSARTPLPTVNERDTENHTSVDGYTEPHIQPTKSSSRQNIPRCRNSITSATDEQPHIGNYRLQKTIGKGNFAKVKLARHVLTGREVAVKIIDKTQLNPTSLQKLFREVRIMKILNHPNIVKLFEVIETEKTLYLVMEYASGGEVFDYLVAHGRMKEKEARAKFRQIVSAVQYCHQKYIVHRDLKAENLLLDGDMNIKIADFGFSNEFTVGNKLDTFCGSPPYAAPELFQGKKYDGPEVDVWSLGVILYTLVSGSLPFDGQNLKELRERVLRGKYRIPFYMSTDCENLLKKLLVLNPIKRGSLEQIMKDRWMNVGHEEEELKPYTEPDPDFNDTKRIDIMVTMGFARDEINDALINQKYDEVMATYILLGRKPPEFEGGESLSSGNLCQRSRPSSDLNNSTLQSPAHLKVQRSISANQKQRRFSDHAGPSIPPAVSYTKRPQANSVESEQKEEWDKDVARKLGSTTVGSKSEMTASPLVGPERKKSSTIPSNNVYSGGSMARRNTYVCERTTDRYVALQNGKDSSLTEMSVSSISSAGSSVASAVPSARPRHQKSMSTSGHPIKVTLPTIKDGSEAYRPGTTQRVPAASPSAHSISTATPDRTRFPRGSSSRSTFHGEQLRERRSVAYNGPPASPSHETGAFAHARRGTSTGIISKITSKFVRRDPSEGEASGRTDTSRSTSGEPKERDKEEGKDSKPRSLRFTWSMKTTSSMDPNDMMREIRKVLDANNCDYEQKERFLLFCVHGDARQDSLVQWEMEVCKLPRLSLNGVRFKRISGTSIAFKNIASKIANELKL

[7] = biological target: T3, Serine/threonine-protein kinase TAO3 (Homo sapiens) (UniProt Q9H2K8); assay: Inhibition of TAOK3 (unknown origin) at 10 uM after 120 mins P33 radiolabeled kinase activity assay
T3 sequence (whole entry): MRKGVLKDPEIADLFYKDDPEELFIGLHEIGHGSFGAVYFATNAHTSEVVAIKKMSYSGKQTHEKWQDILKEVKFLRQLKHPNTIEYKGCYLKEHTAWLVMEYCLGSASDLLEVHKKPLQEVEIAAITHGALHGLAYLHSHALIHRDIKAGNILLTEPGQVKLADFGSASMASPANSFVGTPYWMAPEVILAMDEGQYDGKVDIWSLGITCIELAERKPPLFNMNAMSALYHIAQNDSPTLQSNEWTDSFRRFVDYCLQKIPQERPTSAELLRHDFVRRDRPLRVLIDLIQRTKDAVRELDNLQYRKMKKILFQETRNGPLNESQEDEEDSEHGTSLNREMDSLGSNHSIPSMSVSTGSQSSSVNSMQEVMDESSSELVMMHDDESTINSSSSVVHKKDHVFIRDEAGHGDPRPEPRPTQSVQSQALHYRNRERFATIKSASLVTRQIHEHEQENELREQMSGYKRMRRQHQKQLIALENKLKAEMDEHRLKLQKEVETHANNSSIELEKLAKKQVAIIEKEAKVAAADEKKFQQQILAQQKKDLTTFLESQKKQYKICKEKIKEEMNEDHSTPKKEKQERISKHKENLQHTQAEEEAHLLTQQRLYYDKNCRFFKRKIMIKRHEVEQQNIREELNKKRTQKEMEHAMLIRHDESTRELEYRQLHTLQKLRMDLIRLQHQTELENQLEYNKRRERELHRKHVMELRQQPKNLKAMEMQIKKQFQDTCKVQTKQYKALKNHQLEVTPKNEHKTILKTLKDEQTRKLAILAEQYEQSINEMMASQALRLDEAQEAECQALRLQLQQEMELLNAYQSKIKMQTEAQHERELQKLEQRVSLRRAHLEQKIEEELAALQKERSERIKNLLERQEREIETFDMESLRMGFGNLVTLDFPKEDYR

Sequence of Fibroblast growth factor receptor 2 (Homo sapiens) (P21802 22-821 limits assumed): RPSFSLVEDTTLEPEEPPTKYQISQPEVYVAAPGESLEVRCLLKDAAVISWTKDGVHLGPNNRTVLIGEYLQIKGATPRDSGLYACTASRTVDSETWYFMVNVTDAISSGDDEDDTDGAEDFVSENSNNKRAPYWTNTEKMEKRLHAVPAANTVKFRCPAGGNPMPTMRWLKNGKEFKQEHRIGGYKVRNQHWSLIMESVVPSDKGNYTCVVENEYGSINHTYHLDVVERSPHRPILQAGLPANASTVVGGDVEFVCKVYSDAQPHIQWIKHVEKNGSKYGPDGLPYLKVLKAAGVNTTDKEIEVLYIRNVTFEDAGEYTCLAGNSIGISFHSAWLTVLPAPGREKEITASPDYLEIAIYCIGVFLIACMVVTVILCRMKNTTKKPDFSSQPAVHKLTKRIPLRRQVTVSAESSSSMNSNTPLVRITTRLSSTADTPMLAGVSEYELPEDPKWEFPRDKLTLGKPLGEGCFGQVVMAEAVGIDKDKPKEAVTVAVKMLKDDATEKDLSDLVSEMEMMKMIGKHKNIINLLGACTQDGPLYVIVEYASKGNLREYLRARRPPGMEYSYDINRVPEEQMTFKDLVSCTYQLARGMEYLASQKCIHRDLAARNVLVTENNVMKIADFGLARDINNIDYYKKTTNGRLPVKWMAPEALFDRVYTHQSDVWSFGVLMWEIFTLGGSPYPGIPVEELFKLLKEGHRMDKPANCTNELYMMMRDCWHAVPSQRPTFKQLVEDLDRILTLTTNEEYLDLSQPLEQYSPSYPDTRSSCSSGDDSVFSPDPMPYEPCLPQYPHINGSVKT

| inhibition [1] [%] | inhibition [2] [%] | inhibition [3] [%] | inhibition [4] [%] | inhibition [5] [%] | inhibition [6] [%] | inhibition [7] [%] | SMILES |
| --- | --- | --- | --- | --- | --- | --- | --- |
| 64.4 | 50.5 | 5.55 | 28.3 | 18.2 | 10.3 | 26.7 | CS(=O)(=O)c1cccc(Nc2nccc(-c3sc(N4CCOCC4)nc3-c3cccc(NS(=O)(=O)c4c(F)cccc4F)c3)n2)c1 |
| 4.14 | 9.53 | 10.6 | 17.9 | 12.7 | 3.28 | -0.26 | COCCNC(=O)c1ccc2c(c1)nc(-c1cnc(-c3ccc(Cl)cc3)[nH]1)n2CCOC |
| 79.4 | 27.3 | 25.1 | 31.5 | 54.2 | 4.99 | 51 | CC(C)(C)c1cc(NC(=O)Nc2ccc(Oc3ccncc3)cc2)no1 |
